Reference: article PMC10146281, “Pharmacokinetic and Pharmacodynamic Characteristics of Pelubiprofen Tromethamine vs. Pelubiprofen in Healthy Subjects” (Pharmaceutics, 2023)
Where two headings read alike, the source gives them in different places.

Assays:
cyclooxygenase-2 (COX-2) = biological target: T1, cyclooxygenase-2 (COX-2) (Homo sapiens, UniProt P35354)
T1 sequence (P35354 18-604): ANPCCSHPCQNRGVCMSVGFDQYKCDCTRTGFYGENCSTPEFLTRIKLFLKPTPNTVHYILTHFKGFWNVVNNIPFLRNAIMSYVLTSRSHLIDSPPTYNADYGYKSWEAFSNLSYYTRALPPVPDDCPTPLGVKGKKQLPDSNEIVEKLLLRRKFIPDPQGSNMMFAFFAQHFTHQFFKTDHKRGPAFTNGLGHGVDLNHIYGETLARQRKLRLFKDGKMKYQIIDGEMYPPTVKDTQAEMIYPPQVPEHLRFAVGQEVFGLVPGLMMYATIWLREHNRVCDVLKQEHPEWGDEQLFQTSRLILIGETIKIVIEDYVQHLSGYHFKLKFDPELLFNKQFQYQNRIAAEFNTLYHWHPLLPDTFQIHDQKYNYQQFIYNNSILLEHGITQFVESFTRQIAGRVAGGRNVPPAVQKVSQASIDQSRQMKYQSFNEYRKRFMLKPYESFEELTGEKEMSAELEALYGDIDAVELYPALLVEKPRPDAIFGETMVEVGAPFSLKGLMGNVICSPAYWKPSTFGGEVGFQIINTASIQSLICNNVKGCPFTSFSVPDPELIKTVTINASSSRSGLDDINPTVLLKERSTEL
Experimental: To analyze the pharmacodynamic (PD) characteristics, approximately 1 mL of blood was sampled from the subjects in Study I, who had agreed to participate in the associated PD evaluation. The blood sampling was performed before administration (0 h) and at the following time points after administration: 0.083 h (5 min), 0.167 h (10 min), 0.33 h (20 min) and 0.5, 0.75, 1, 1.5, 2, 2.5, 3, 3.5, 4, 6, and 8 h. Therefore, for each subject, the blood sampling was performed 15 times in each period. While the PD analysis was performed on the same schedule as the PK analysis, only period 1 and 2 results were included in the analyses, and the post study visit was not performed.
The pharmacodynamic (PD) analysis was performed on the subjects in Study I, who had agreed to participate in the PD evaluation. For pharmacodynamic evaluation, the lipopolysaccharide (LPS) from E. coli O111:B4 (Sigma-Aldrich, Seoul, Republic of Korea) and the prostaglandin E2 (PGE2) enzyme-linked immunosorbent assay (ELISA) monoclonal kit (Cayman Chemical, MI, USA) were used. This study was conducted on healthy subjects, and LPS was added to sampled blood to induce inflammatory gene expression. The following procedures were applied for the PGE2 concentration analysis of subjects in Study I, who had agreed to participate in the pharmacodynamic evaluation.
Into 1.0 mL of sampled blood, 10 μL of lipopolysaccharide (LPS) was added. The mixture was centrifuged at […] and 4 °C for 10 min. By mixing the PGE2 ELISA standard and 1.0 mL of ELISA buffer, the standard reagents were produced at 1000, 500, 250, 125, 62.5, 31.3, 15.6, 7.8 pg/mL concentrations. Subsequently, to each well of the 96-well plate, 50 μL of the standard reagent, PGE2 acetylcholinesterase (AChE) tracer, and PGE2 monoclonal antibody were added. Each plate was then covered with a plastic film to be cultured at 4 °C for 18 h. Then, the wells were washed with the buffer solution 5 times, after which 200 μL of Ellman’s reagent was added to each well. The plate was covered with film once more to be placed on an orbital shaker for 60 min. The plate was read at a wavelength of 410 nm.
Pharmacodynamic (PD) was analyzed with data from the first and second periods. The plasma Prostaglandin E2 (PGE2) concentration in the first and second periods of Study I was measured using the enzyme-linked immunosorbent assay (ELISA) at the same time points as in the PK analysis: before investigational drug administration (0 h) and after drug administration at 0.083 h (5 min), 0.167 h (10 min), 0.33 h (20 min), and 0.5, 0.75, 1, 1.5, 2, 2.5, 3, 3.5, 4, 6, and 8 h. Therefore, for each subject, the measurements were taken 15 times in each period. While the PD analysis was performed on the same schedule as the PK analysis, only period 1 and 2 results were included in the analyses, and the post-study visit was not performed.
The PGE2 concentration and the cyclooxygenase-2 (COX-2) inhibitory effect derived from baseline (0 h time point before drug administration) values for each subject in Study I were visualized. The decreased level of calibrated PGE2 concentration performed in accordance with the concentration at baseline for each subject was tested as the extent of COX-2 inhibition, and the GMR and respective 90% CI of the COX-2 inhibition were applied in the PD analysis.
The pharmacodynamic (PD) data from the subjects in Study I, who had agreed to participate in the PD evaluation, were analyzed as follows to check for outliers. Grubbs’ test was performed when the normality of the data was satisfied; otherwise, a boxplot was drawn for log-transformed values, after which values outside the interquartile range (IQR) were checked for subsequent use in Grubb’s test. For significant outliers, the data excluding the values were analyzed once again.

[1] = Study II safety and tolerability evaluation (adverse events); assay type: in vivo, human; conditions: treatment of test (30 mg pelubiprofen tromethamine), 36 subjects evaluated, mild, 'not related'
Experimental: In both Study I and II, the safety evaluation was performed on subjects administered with the investigational drug at least once. Any clinically significant findings in the interview, physical examination, vital signs, 12-lead electrocardiogram (ECG), the clinical laboratory test, etc., during the study period were collected as adverse events, which were subsequently evaluated for the incidence of serious adverse events, severity, causal relationship, etc. All relevant data were collected through monitoring by the investigator and voluntary reporting by the subjects. To collect additional data, interview and physical examination were performed where necessary. The investigator carried out the follow-up monitoring of the subjects with adverse events until the symptoms subsided and abnormal test values returned to a healthy baseline or until a satisfactory explanation for the observed change could be provided.

[2] = parameters: method as in PMID 34070062; conditions: non-clinical studies; cited from earlier work
[3] = parameters: method as in earlier work; conditions: cited from earlier work
[4] = Study I, all subjects N = 30, 25 mg pelubiprofen tromethamine vs. 30 mg pelubiprofen
[5] = Study I, without outliers N = 28, 25 mg pelubiprofen tromethamine vs. 30 mg pelubiprofen

SMILES: CC(C(=O)O)c1ccc(/C=C2\CCCCC2=O)cc1 (stereo not drawn) [Pelubiprofen Tromethamine, pelubiprofen tromethamine]
- Tmax,i (time of peak baseline-corrected COX-2 inhibition) (cyclooxygenase-2 (COX-2); Study I periods 1 and 2, all subjects N = 30, single oral 25 mg pelubiprofen tromethamine, median (minimum–maximum)): 0.50 (0.00–3.50) h
- Tmax,I (time of peak baseline-corrected COX-2 inhibition) (cyclooxygenase-2 (COX-2); Study I periods 1 and 2, without outliers (A03 and A08) N = 28, single oral 25 mg pelubiprofen tromethamine, median (minimum–maximum)): 0.50 (0.17–3.50) h
- Geometric Mean Ratio (90% CI) of AUIC (cyclooxygenase-2 (COX-2); [4]): 1.09 (0.94–1.27)
- Geometric Mean Ratio (90% CI) of Imax (cyclooxygenase-2 (COX-2); [4]): 0.98 (0.95–1.02)
- Geometric Mean Ratio (90% CI) of Tmax,i (cyclooxygenase-2 (COX-2); [4]): 1.01 (0.75–1.35)
- maximum COX-2 inhibitory effect compared to the reference (cyclooxygenase-2 (COX-2); Study I, all subjects, 25 mg pelubiprofen tromethamine compared to 30 mg pelubiprofen): approximately 98%
- COX-2 inhibitory effect compared to the reference (cyclooxygenase-2 (COX-2); Study I, excluding two outlier subjects (A03 and A08), 25 mg pelubiprofen tromethamine compared to 30 mg pelubiprofen): approximately 98%
- Geometric Mean Ratio (90% CI) of AUIC (cyclooxygenase-2 (COX-2); [5]): 1.03 (0.91–1.18)
- Geometric Mean Ratio (90% CI) of Imax (cyclooxygenase-2 (COX-2); [5]): 0.98 (0.95–1.01)
- Geometric Mean Ratio (90% CI) of Tmax,I (cyclooxygenase-2 (COX-2); [5]): 1.00 (0.73–1.36)
- Geometric Mean Ratio (90% CI) of Imax (cyclooxygenase-2 (COX-2); Study I, without outliers N = 28, 25 mg pelubiprofen tromethamine vs. 30 mg pelubiprofen, listed as pelubiprofen tromethamine): approximately 0.98
- adverse events [1]: one case of adverse events
- solubility and absorption compared to pelubiprofen [2]: enhanced solubility and absorption

SMILES: CC(C(=O)O)c1ccc(/C=C2\CCCCC2=O)cc1 (stereo not drawn) [Pelubiprofen, 2-[4-(oxocyclohexylidenemethyl)-phenyl] propionic acid]
- time after administration until which COX-2 inhibition was maintained (cyclooxygenase-2 (COX-2); Study I, single oral 30 mg pelubiprofen): approximately 8 h
- Tmax,I (time of peak baseline-corrected COX-2 inhibition) (cyclooxygenase-2 (COX-2); human, in vivo, po, 30 mg): 0.50 (0.33–3.50) h
- Tmax,PGE2 (cyclooxygenase-2 (COX-2); human, in vivo, po, 30 mg): 0.08 (0.00–8.00) h
- Tmax,i (time of peak baseline-corrected COX-2 inhibition) (cyclooxygenase-2 (COX-2); human, in vivo, po, 30 mg): 0.50 (0.33–3.50) h
- protein binding rate [3]: high protein binding rate
